Source: patent publication US20100048597A1 (Novartis AG, priority 2006, published 2010)
Like-named read-outs stand apart in the source and are kept apart here.

Legend:
[1] = biological target: T1, CDK2/cyclinA (Homo sapiens, UniProt P24941); experiment: CDK2/cyclinA kinase assay, IMAP fluorescence polarization; type: biochemical
T1 construct: purchased Millipore
Description: (§1) Kinase assays were performed on recombinant purified enzymes using the non-radioactive IMAP fluorescence polarization assay format.
(§2) Compound stocks were prepared and diluted in DMSO and were added to kinase reactions at a 1/100 dilution for a final concentration of 1% DMSO. The components were added together to final concentrations listed in the tables below and incubated for two hours at room temperature.
(§3) The reactions were stopped by addition of stop solution.
CDK2: final stop concentration is 1× Developer buffer (100% A), IMAP beads 1/400
(§4) The samples were allowed to incubate for one more hour at room temperature and then the fluorescence polarization was measured. The plate normalized millipolarization (mP) values were plotted against the log of compound concentration for each compound and IC50 values were calculated using the spotfire IC50 calculator and confirmed by visual analysis.

[2] = biological target: T2, CDK9/cyclinT1 (Homo sapiens, UniProt P50750); experiment: CDK9/cyclinT1 kinase assay, IMAP fluorescence polarization; type: biochemical
T2 construct: purchased Millipore
How it was run: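 Recombinant purified enzyme complexes assayed by IMAP fluorescence polarization with 1% final DMSO, 2 h at room temperature; stopped with 1× Developer buffer (85% A/15% B) plus IMAP beads 1/400, then 1 h further at room temperature. IC50 from normalized mP versus log compound concentration.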

[3] = biological target: CDK5 (Homo sapiens, UniProt Q00535); experiment: CDK5 kinase assay (Table F); type: biochemical
[4] = biological target: T3, CDK1/cyclinB (Homo sapiens, UniProt P06493); experiment: CDK1/cyclinB kinase assay, IMAP fluorescence polarization; type: biochemical
T3 construct: purchased Millipore
How it was run: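 IMAP fluorescence polarization assay on recombinant purified enzyme, compounds at final 1% DMSO. Reaction run 2 h at room temperature, stopped, held 1 h more before reading polarization.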

[5] = biological target: T4, CDK7/cyclinH/MAT1 (Homo sapiens, UniProt P50613); experiment: CDK7/cyclinH/Mat1 kinase assay, IMAP fluorescence polarization; type: biochemical
T4 construct: purchased Millipore
Description: as §1, §2, §3
CDK9/CDK1/CDK7: final stop concentration is 1× Developer buffer (85% A/15% B), IMAP beads 1/400
as §4

[6] = test system: RNA Polymerase II CTD Serine2 Phosphorylation; experiment: H5 (Ser2) Ab High Content Screen: RNA Polymerase II CTD Serine2 Phosphorylation Assay in Hep3B cells; type: cell-based; conditions: Homo sapiens, 2 hours with compound, H5 antibody staining
Description: H5 (also referred as Ser2) Ab High Content Screen: RNA Polymerase II CTD Serine2 Phosphorylation Assay
1. Cells are plated into 384 well plates: 30 μl of Hep3B cells (4,000 cells/30 μl) in DMEM with 3% FBS are plated into wells of a tissue culture treated clear bottomed 384 well plate. Cells are allowed to adhere during an overnight incubation.
2. Cells are treated with compounds for two hours: 10 μl of DMEM with 3% FBS is added to each well with a final concentration of DMSO equal to 1%. Cells are incubated with compounds for 2 hours.
3. Cells are fixed and permeabilized. Cells are washed with 30 mM HEPES pH=7.3 then fixed in 4% paraformaldehyde in 30 mM HEPES pH=7.3 for one hour at room temperature. The fix is removed by washing the cells with Tris buffered saline (TBS) and the cells are permeabilized by incubation in TBS with 0.5% triton X-100 for 30 minutes at room temperature. Triton is removed by washing the cells with TBS.
4. […] Incubate primary H5 Ab (1/250 ) overnight at 4 degrees in TBS with 1% BSA and 0.1% Tween-20. The next day wash cells with TBS. […] Wash cells with PBS.
5. Measure staining using the In-cell Analyzer system from GE Healthcare.

[7] = biological target: CDK4 (Homo sapiens, UniProt P11802); experiment: CDK4 kinase assay (Table F); type: biochemical
Chain of CDK4 (P11802 whole entry, species assumed): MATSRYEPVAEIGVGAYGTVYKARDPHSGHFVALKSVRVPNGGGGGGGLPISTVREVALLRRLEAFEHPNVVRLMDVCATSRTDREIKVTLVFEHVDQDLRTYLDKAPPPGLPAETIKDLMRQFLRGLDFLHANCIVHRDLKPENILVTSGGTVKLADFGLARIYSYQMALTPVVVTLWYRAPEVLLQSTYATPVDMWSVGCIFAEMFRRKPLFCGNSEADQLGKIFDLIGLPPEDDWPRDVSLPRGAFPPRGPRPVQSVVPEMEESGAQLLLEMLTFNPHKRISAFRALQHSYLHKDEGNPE
Chain of CDK4 (P24385 whole entry partner, species assumed): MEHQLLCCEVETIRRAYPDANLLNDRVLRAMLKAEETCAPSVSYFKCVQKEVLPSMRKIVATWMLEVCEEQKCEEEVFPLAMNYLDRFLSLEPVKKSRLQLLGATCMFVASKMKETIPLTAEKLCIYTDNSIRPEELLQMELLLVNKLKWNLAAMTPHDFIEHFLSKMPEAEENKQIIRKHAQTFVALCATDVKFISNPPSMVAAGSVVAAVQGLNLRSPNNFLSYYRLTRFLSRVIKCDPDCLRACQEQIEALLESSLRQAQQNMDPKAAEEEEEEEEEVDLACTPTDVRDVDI

T2 sequence (P50750 whole entry): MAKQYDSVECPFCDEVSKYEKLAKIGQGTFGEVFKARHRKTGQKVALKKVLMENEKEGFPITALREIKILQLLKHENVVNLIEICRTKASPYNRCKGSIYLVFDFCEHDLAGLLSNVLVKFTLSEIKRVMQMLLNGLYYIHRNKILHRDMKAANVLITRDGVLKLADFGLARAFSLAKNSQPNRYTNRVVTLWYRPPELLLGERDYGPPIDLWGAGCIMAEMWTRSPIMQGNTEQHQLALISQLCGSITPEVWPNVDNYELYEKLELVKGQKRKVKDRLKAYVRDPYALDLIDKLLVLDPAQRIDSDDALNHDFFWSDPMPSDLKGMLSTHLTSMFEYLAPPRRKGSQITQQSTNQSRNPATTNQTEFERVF
T2 sequence (O60563 whole entry partner): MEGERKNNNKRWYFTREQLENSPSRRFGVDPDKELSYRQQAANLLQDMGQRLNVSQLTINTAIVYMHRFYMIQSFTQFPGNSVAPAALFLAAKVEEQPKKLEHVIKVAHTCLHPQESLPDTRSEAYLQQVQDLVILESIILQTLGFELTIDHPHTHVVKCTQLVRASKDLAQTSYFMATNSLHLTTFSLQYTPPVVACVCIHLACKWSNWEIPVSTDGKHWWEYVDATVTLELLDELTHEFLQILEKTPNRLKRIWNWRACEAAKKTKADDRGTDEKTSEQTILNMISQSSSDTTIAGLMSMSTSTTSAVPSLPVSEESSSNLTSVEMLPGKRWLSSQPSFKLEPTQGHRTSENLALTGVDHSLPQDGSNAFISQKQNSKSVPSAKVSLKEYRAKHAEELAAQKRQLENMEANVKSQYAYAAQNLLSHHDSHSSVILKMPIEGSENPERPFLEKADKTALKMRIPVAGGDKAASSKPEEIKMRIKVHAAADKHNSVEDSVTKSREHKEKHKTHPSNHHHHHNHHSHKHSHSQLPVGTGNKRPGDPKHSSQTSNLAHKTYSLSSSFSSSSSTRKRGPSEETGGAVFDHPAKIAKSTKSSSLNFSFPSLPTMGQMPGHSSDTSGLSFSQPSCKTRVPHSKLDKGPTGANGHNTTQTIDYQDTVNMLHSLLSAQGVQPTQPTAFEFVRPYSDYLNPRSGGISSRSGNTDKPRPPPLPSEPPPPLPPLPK
T4 sequence (P50613 whole entry): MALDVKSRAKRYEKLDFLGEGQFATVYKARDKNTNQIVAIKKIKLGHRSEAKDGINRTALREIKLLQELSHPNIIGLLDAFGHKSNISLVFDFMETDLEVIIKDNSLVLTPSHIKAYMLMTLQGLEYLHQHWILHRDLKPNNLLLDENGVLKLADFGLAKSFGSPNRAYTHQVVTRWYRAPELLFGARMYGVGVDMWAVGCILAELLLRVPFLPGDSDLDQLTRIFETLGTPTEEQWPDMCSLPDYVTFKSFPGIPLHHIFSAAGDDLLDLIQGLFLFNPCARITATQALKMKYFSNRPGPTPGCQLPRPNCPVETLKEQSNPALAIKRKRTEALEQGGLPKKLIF
T4 sequence (P51946 whole entry partner): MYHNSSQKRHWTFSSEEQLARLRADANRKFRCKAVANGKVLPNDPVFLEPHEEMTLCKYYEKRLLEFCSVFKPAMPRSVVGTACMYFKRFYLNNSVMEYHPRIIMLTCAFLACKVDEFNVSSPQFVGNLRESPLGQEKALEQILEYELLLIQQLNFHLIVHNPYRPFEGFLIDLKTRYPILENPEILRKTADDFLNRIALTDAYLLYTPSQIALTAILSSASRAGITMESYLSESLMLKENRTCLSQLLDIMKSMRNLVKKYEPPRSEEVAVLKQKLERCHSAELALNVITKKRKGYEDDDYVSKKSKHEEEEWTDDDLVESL
T4 sequence (P51948 whole entry partner): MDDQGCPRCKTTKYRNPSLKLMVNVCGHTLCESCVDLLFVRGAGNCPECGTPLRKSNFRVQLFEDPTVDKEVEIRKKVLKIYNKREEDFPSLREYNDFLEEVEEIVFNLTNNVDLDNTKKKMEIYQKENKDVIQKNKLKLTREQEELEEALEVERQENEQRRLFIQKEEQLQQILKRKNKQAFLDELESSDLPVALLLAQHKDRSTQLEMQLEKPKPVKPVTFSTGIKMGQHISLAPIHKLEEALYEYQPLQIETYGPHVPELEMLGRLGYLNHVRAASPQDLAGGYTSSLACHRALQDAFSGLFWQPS
Chain of CDK5 (Q00535 whole entry, species assumed): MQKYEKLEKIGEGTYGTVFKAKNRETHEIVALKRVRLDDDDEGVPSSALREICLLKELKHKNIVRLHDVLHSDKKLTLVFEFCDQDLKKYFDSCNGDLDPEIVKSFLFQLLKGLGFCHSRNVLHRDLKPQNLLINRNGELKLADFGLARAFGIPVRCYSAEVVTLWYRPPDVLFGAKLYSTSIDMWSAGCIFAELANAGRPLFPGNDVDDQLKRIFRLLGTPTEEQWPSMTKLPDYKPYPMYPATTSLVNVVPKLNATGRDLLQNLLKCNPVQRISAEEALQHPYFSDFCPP
Chain of CDK5 (Q15078 whole entry partner, species assumed): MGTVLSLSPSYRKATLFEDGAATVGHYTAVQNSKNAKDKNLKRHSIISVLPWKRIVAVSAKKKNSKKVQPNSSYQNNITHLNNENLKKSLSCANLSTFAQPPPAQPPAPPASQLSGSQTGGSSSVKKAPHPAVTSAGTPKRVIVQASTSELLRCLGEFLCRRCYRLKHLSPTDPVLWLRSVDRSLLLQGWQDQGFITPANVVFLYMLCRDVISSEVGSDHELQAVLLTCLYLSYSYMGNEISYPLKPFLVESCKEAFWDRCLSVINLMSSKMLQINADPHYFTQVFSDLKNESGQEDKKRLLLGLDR
T3 sequence (P06493 whole entry): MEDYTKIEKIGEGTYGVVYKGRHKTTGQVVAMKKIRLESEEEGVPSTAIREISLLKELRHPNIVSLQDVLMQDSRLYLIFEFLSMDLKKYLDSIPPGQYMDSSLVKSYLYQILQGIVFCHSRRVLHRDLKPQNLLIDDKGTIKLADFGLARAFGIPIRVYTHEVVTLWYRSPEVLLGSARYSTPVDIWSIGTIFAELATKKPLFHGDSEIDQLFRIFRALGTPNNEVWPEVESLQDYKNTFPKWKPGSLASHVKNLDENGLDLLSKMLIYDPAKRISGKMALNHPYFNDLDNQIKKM
T3 sequence (P14635 whole entry partner): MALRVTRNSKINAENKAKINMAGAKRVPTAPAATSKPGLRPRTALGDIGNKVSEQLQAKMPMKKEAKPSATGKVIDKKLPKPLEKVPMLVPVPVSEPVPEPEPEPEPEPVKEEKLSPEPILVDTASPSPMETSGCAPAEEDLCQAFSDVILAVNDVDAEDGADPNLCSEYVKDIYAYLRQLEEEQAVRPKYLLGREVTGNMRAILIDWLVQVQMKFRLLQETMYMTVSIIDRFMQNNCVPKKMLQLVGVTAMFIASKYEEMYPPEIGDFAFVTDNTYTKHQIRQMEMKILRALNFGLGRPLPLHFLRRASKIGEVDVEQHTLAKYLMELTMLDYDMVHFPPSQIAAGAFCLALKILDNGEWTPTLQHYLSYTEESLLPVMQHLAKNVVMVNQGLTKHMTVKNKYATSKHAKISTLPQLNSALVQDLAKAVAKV

IC50 [1] | IC50 [2] | IC50 [3] | IC50 ([4]; read-out: CDK1 IC50) | IC50 [5] | IC50 [6] | IC50 [7] | Compound | IC50 [4]
< 5 µM | < 5 µM | < 5 µM | < 5 µM | < 5 µM | < 5 µM | < 5 µM | CNCCNc1nccc(-c2ccnc(Nc3cccc(Cl)c3)n2)c1C [Compound 3, N-{4-[2-(3-Chloro-phenylamino)-pyrimidin-4-yl]-3-methyl-pyridin-2-yl}-N′-methyl-ethane-1,2-diamine] | –
< 5 µM | < 5 µM | – | 5 to 15 µM | < 5 µM | 5 to 15 µM | 5 to 15 µM | CC(=O)NCCCNc1nccc(-c2ccnc(Nc3cccc(Cl)c3)n2)c1C [Compound 6, N-(3-{4-[2-(3-Chloro-phenylamino)-pyrimidin-4-yl]-3-methyl-pyridin-2-ylamino}-propyl)-acetamide] | –
< 5 µM | < 5 µM | < 5 µM | 5 to 15 µM | – | 5 to 15 µM | 15 to 50 µM | Cc1c(-c2ccnc(Nc3cccc(Cl)c3)n2)ccnc1NCCCn1ccnc1 [Compound 23, (3-Chloro-phenyl)-{4-[2-(3-imidazol-1-yl-propylamino)-3-methyl-pyridin-4-yl]-pyrimidin-2-yl}-amine] | –
< 5 µM | < 5 µM | 5 to 15 µM | 5 to 15 µM | – | 15 to 50 µM | – | Cc1c(-c2ccnc(Nc3cccc(Cl)c3)n2)ccnc1NCCCN1CCCC1=O [Compound 24, 1-(3-{4-[2-(3-Chloro-phenylamino)-pyrimidin-4-yl]-3-methyl-pyridin-2-ylamino}-propyl)-pyrrolidin-2-one] | –
< 5 µM | < 5 µM | < 5 µM | < 5 µM | < 5 µM | < 5 µM | 5 to 15 µM | CC(=O)NCCCNc1nccc(-c2ccnc(Nc3cccc([N+](=O)[O-])c3)n2)c1C [Compound 25, N-(3-{3-Methyl-4-[2-(3-nitro-phenylamino)-pyrimidin-4-yl]-pyridin-2-ylamino}-propyl)-acetamide] | –
< 5 µM | < 5 µM | < 5 µM | < 5 µM | < 5 µM | < 5 µM | 15 to 50 µM | CC(=O)NCCCNc1cc(-c2nc(Nc3cccc(Cl)c3)ncc2C)ccn1 [Compound 32, N-(3-{4-[2-(3-Chloro-phenylamino)-5-methyl-pyrimidin-4-yl]-pyridin-2-ylamino}-propyl)-acetamide] | –
< 5 µM | < 5 µM | < 5 µM | < 5 µM | > 50 µM | < 5 µM | 5 to 15 µM | COc1cnccc1-c1ccnc(Nc2cccc(Cl)c2)n1 [Compound 45, (3-Chloro-phenyl)-[4-(3-methoxy-pyridin-4-yl)-pyrimidin-2-yl]-amine] | –
< 5 µM | < 5 µM | < 5 µM | < 5 µM | < 5 µM | < 5 µM | 5 to 15 µM | COc1cnccc1-c1ccnc(Nc2cccc(S(C)(=O)=O)c2)n1 [Compound 46, (3-Methanesulfonyl-phenyl)-[4-(3-methoxy-pyridin-4-yl)-pyrimidin-2-yl]-amine] | –
– | < 5 µM | < 5 µM | < 5 µM | – | < 5 µM | 5 to 15 µM | Clc1cccc(Nc2nccc(-c3ccnc4ccccc34)n2)c1 [Compound 48, (3-Chloro-phenyl)-(4-quinolin-4-yl-pyrimidin-2-yl)-amine] | –
< 5 µM | < 5 µM | < 5 µM | < 5 µM | < 5 µM | < 5 µM | < 5 µM | NCCNc1ncccc1-c1ccnc(Nc2cccc(Cl)c2)n1 [Compound 52, N-{3-[2-(3-Chloro-phenylamino)-pyrimidin-4-yl]-pyridin-2-yl}-ethane-1,2-diamine] | –
< 5 µM | < 5 µM | < 5 µM | < 5 µM | < 5 µM | < 5 µM | < 5 µM | NCCCNc1ncccc1-c1ccnc(Nc2cccc(Cl)c2)n1 [Compound 55, N-{3-[2-(3-Chloro-phenylamino)-pyrimidin-4-yl]-pyridin-2-yl}-propane-1,3-diamine] | –
< 5 µM | < 5 µM | < 5 µM | < 5 µM | – | < 5 µM | < 5 µM | CS(=O)(=O)c1cccc(Nc2nccc(-c3cccnc3NCCCN)n2)c1 [Compound 58, N-{3-[2-(3-Methanesulfonyl-phenylamino)-pyrimidin-4-yl]-pyridin-2-yl}-propane-1,3-diamine] | –
< 5 µM | < 5 µM | < 5 µM | < 5 µM | – | 15 to 50 µM | 5 to 15 µM | NCCCNc1ncccc1-c1ccnc(Nc2cccc(S(N)(=O)=O)c2)n1 [Compound 59, 3-{4-[2-(3-Amino-propylamino)-pyridin-3-yl]-pyrimidin-2-ylamino}-benzenesulfonamide] | –
< 5 µM | < 5 µM | < 5 µM | < 5 µM | < 5 µM | < 5 µM | < 5 µM | N#Cc1cccc(Nc2nccc(-c3cccnc3NCCCN)n2)c1 [Compound 60, 3-{4-[2-(3-Amino-propylamino)-pyridin-3-yl]-pyrimidin-2-ylamino}-benzonitrile] | –
< 5 µM | < 5 µM | < 5 µM | < 5 µM | – | < 5 µM | 15 to 50 µM | CC(=O)NCCCNc1ncccc1-c1ccnc(Nc2cccc(Cl)c2)n1 [Compound 65, N-(3-{3-[2-(3-Chloro-phenylamino)-pyrimidin-4-yl]-pyridin-2-ylamino}-propyl)-acetamide] | –
< 5 µM | < 5 µM | < 5 µM | < 5 µM | – | < 5 µM | 15 to 50 µM | CS(=O)(=O)NCCCNc1ncccc1-c1ccnc(Nc2cccc(Cl)c2)n1 [Compound 72, N-(3-{3-[2-(3-Chloro-phenylamino)-pyrimidin-4-yl]-pyridin-2-ylamino}-propyl)-methanesulfonamide] | –
< 5 µM | < 5 µM | 5 to 15 µM | < 5 µM | – | 5 to 15 µM | 15 to 50 µM | CC(=O)NCC(C)(C)CNc1ncccc1-c1ccnc(Nc2cccc(Cl)c2)n1 [Compound 73, N-(3-{3-[2-(3-Chloro-phenylamino)-pyrimidin-4-yl]-pyridin-2-ylamino}-2,2-dimethyl-propyl)-acetamide] | –
< 5 µM | < 5 µM | < 5 µM | < 5 µM | – | < 5 µM | < 5 µM | NCCCCNc1ncccc1-c1ccnc(Nc2cccc(Cl)c2)n1 [Compound 84, N-{3-[2-(3-Chloro-phenylamino)-pyrimidin-4-yl]-pyridin-2-yl}-butane-1,4-diamine] | –
< 5 µM | < 5 µM | < 5 µM | < 5 µM | – | < 5 µM | 15 to 50 µM | COc1ncccc1-c1ccnc(Nc2cccc(S(C)(=O)=O)c2)n1 [Compound 93, (3-Methanesulfonyl-phenyl)-[4-(2-methoxy-pyridin-3-yl)-pyrimidin-2-yl]-amine] | –
< 5 µM | < 5 µM | – | < 5 µM | – | < 5 µM | – | COc1ncccc1-c1ccnc(Nc2cccc(-c3cnco3)c2)n1 [Compound 110, [4-(2-Methoxy-pyridin-3-yl)-pyrimidin-2-yl]-(3-oxazol-5-yl-phenyl)-amine] | –

Compound | IC50 [1] | IC50 [2] | IC50 [3] | IC50 ([4]; read-out: CDK1 IC50) | IC50 [5] | IC50 [6] | IC50 [7] | IC50 [4]
COc1ncccc1-c1ccnc(Nc2ccc3cn[nH]c3c2)n1 [Compound 112, (1H-Indazol-6-yl)-[4-(2-methoxy-pyridin-3-yl)-pyrimidin-2-yl]-amine] | < 5 µM | < 5 µM | – | – | – | < 5 µM | – | < 5 µM
